Measured values as given in PubChem BioAssay AID1259407 (Chemical Carcinogenesis Research Information System (CCRIS), 2018).
Calls of active or inactive are those of the source. No rule for the calls is given here.

Test system: CCRIS mutagenicity, Ames/micronucleus/aberration tests
Test: CCRIS mutagenicity studies
[1] = Test System: AMES SALMONELLA TYPHIMURIUM, Strain/Indicator: TA98, Metabolic Activation: NONE, Method: STANDARD PLATE
[2] = Test System: AMES SALMONELLA TYPHIMURIUM, Strain/Indicator: TA98, Metabolic Activation: RAT, LIVER, S-9, AROCLOR 1254, Method: STANDARD PLATE
[3] = Test System: AMES SALMONELLA TYPHIMURIUM, Strain/Indicator: TA98, Metabolic Activation: NONE, Method: PREINCUBATION
[4] = Test System: AMES SALMONELLA TYPHIMURIUM, Strain/Indicator: TA100, Metabolic Activation: NONE, Method: PREINCUBATION
[5] = Test System: AMES SALMONELLA TYPHIMURIUM, Strain/Indicator: TA100, Metabolic Activation: NONE, Method: STANDARD PLATE

## O=[N+]([O-])O.O=[N+]([O-])O.[O]=[U]=[O]
End Point: In vitro micronucleus, Test System: Rat kidney (NRK-52E) cells, Metabolic Activation: None
  mutagenic call: inactive; negative; depleted uranium tested

## O=C1c2ccccc2C(=O)c2c1cc(O)c(O)c2O
[1]
  mutagenic call: active; positive
[2]
  mutagenic call: active; positive
Test System: AMES SALMONELLA TYPHIMURIUM, Strain/Indicator: TA1535, Metabolic Activation: NONE, Method: STANDARD PLATE
  mutagenic call: inactive; negative
Test System: AMES SALMONELLA TYPHIMURIUM, Strain/Indicator: TA1535, Metabolic Activation: RAT, LIVER, S-9, AROCLOR 1254, Method: STANDARD PLATE
  mutagenic call: inactive; negative
Test System: AMES SALMONELLA TYPHIMURIUM, Strain/Indicator: TA1537, Metabolic Activation: NONE, Method: STANDARD PLATE
  mutagenic call: active; positive
Test System: AMES SALMONELLA TYPHIMURIUM, Strain/Indicator: TA1537, Metabolic Activation: RAT, LIVER, S-9, AROCLOR 1254, Method: STANDARD PLATE
  mutagenic call: active; positive
Test System: AMES SALMONELLA TYPHIMURIUM, Strain/Indicator: TA1538, Metabolic Activation: NONE, Method: STANDARD PLATE
  mutagenic call: active; positive
Test System: AMES SALMONELLA TYPHIMURIUM, Strain/Indicator: TA1538, Metabolic Activation: RAT, LIVER, S-9, AROCLOR 1254, Method: STANDARD PLATE
  mutagenic call: active; positive
Test System: AMES SALMONELLA TYPHIMURIUM, Strain/Indicator: TA1978, Metabolic Activation: NONE, Method: STANDARD PLATE
  mutagenic call: inactive; negative
Test System: AMES SALMONELLA TYPHIMURIUM, Strain/Indicator: TA1978, Metabolic Activation: RAT, LIVER, S-9, AROCLOR 1254, Method: STANDARD PLATE
  mutagenic call: inactive; negative

## Cc1ccc(C(=O)Cl)cc1
[3]
  mutagenic call: inactive; negative
Test System: AMES SALMONELLA TYPHIMURIUM, Strain/Indicator: TA98, Metabolic Activation: RAT LIVER S-9, PCB, Method: PREINCUBATION
  mutagenic call: inactive; negative
[4]
  mutagenic call: active; positive
Test System: AMES SALMONELLA TYPHIMURIUM, Strain/Indicator: TA100, Metabolic Activation: RAT LIVER S-9, PCB, Method: PREINCUBATION
  mutagenic call: active; positive
Test System: AMES SALMONELLA TYPHIMURIUM, Strain/Indicator: TA104, Metabolic Activation: NONE, Method: PREINCUBATION
  mutagenic call: active; positive
Test System: AMES SALMONELLA TYPHIMURIUM, Strain/Indicator: TA104, Metabolic Activation: RAT LIVER S-9, PCB, Method: PREINCUBATION
  mutagenic call: active; positive
Test System: E.COLI, Strain/Indicator: WP2 UVRA, Metabolic Activation: NONE, Method: PREINCUBATION
  mutagenic call: active; positive
Test System: E.COLI, Strain/Indicator: WP2 UVRA, Metabolic Activation: RAT LIVER S-9, PCB, Method: PREINCUBATION
  mutagenic call: active; positive

## COc1nsc2ccc(OCC3CO3)cc12 (stereo unspecified)
[5]
  mutagenic call: active; positive

## Nc1ccc2c(c1)CN1C(=O)c3ccccc3C1=N2
Test System: AMES SALMONELLA TYPHIMURIUM, Strain/Indicator: DJ400, Metabolic Activation: RAT, LIVER, S-9, AROCLOR 1254, Method: PREINCUBATION
  mutagenic call: active; positive
Test System: AMES SALMONELLA TYPHIMURIUM, Strain/Indicator: DJ460, Metabolic Activation: RAT, LIVER, S-9, AROCLOR 1254, Method: PREINCUBATION
  mutagenic call: active; positive
Test System: AMES SALMONELLA TYPHIMURIUM, Strain/Indicator: TA98(1,8-DNP6), Metabolic Activation: RAT, LIVER, S-9, AROCLOR 1254, Method: PREINCUBATION
  mutagenic call: active; positive
[3]
  mutagenic call: active; positive
Test System: AMES SALMONELLA TYPHIMURIUM, Strain/Indicator: TA98, Metabolic Activation: RAT, LIVER, S-9, AROCLOR 1254, Method: PREINCUBATION
  mutagenic call: active; positive
[4]
  mutagenic call: active; positive
Test System: AMES SALMONELLA TYPHIMURIUM, Strain/Indicator: TA100, Metabolic Activation: RAT, LIVER, S-9, AROCLOR 1254, Method: PREINCUBATION
  mutagenic call: active; positive
Test System: AMES SALMONELLA TYPHIMURIUM, Strain/Indicator: TA102, Metabolic Activation: NONE, Method: PREINCUBATION
  mutagenic call: active; positive
Test System: AMES SALMONELLA TYPHIMURIUM, Strain/Indicator: TA102, Metabolic Activation: RAT, LIVER, S-9, AROCLOR 1254, Method: PREINCUBATION
  mutagenic call: active; positive
Test System: AMES SALMONELLA TYPHIMURIUM, Strain/Indicator: TA1538(1,8-DNP6), Metabolic Activation: RAT, LIVER, S-9, AROCLOR 1254, Method: PREINCUBATION
  mutagenic call: active; positive
Test System: AMES SALMONELLA TYPHIMURIUM, Strain/Indicator: TA1538, Metabolic Activation: RAT, LIVER, S-9, AROCLOR 1254, Method: PREINCUBATION
  mutagenic call: active; positive
Test System: AMES SALMONELLA TYPHIMURIUM, Strain/Indicator: YG1012, Metabolic Activation: RAT, LIVER, S-9, AROCLOR 1254, Method: PREINCUBATION
  mutagenic call: active; positive
Test System: AMES SALMONELLA TYPHIMURIUM, Strain/Indicator: YG1024, Metabolic Activation: RAT, LIVER, S-9, AROCLOR 1254, Method: PREINCUBATION
  mutagenic call: active; positive
Test System: UDS MOUSE HEPATOCYTES, Strain/Indicator: THY INCORP, Metabolic Activation: NONE, Method: AUTORADIOGRAPHY
  mutagenic call: active; positive
Test System: UDS RAT HEPATOCYTES, Strain/Indicator: THY INCORP, Metabolic Activation: NONE, Method: AUTORADIOGRAPHY
  mutagenic call: active; positive

## CC[C@H]1OC(=O)[C@H](C)[C@@H](O[C@H]2C[C@@](C)(OC)[C@@H](O)[C@H](C)O2)[C@H](C)[C@@H](O[C@@H]2O[C@H](C)C[C@H](N(C)C)[C@H]2O)[C@](C)(O)C[C@@H](C)[C@@H]2N[C@@H](COCCOC)O[C@H]([C@H]2C)[C@]1(C)O
End Point: In vitro chromosomal aberrations, Test System: Chinese hamster lung (CHL) cells, Metabolic Activation: None
  mutagenic call: inactive; negative
End Point: In vitro chromosomal aberrations, Test System: Chinese hamster lung (CHL) cells, Metabolic Activation: S-9
  mutagenic call: inactive; negative

## CC(C)(C)NC[C@H](O)COc1ccc(O)cc1C1CCCC1
[1]
  mutagenic call: inactive; negative
[2]
  mutagenic call: inactive; negative

## O=S(=O)(O)c1ccccc1
Test System: AMES SALMONELLA TYPHIMURIUM, Strain/Indicator: TA97, Metabolic Activation: HAMSTER, LIVER, S-9, AROCLOR 1254 (10 OR 30%), Method: PREINCUBATION
  mutagenic call: inactive; negative
Test System: AMES SALMONELLA TYPHIMURIUM, Strain/Indicator: TA97, Metabolic Activation: NONE, Method: PREINCUBATION
  mutagenic call: inactive; negative
Test System: AMES SALMONELLA TYPHIMURIUM, Strain/Indicator: TA97, Metabolic Activation: RAT, LIVER, S-9, AROCLOR 1254 (10 OR 30%), Method: PREINCUBATION
  mutagenic call: inactive; negative
Test System: AMES SALMONELLA TYPHIMURIUM, Strain/Indicator: TA98, Metabolic Activation: HAMSTER, LIVER, S-9, AROCLOR 1254 (10 OR 30%), Method: PREINCUBATION
  mutagenic call: inactive; negative
[3]
  mutagenic call: inactive; negative
Test System: AMES SALMONELLA TYPHIMURIUM, Strain/Indicator: TA98, Metabolic Activation: RAT, LIVER, S-9, AROCLOR 1254 (10 OR 30%), Method: PREINCUBATION
  mutagenic call: inactive; negative
Test System: AMES SALMONELLA TYPHIMURIUM, Strain/Indicator: TA100, Metabolic Activation: HAMSTER, LIVER, S-9, AROCLOR 1254 (10 OR 30%), Method: PREINCUBATION
  mutagenic call: inactive; negative
[4]
  mutagenic call: inactive; negative
Test System: AMES SALMONELLA TYPHIMURIUM, Strain/Indicator: TA100, Metabolic Activation: RAT, LIVER, S-9, AROCLOR 1254 (10 OR 30%), Method: PREINCUBATION
  mutagenic call: inactive; negative
Test System: AMES SALMONELLA TYPHIMURIUM, Strain/Indicator: TA1535, Metabolic Activation: HAMSTER, LIVER, S-9, AROCLOR 1254 (10 OR 30%), Method: PREINCUBATION
  mutagenic call: inactive; negative
Test System: AMES SALMONELLA TYPHIMURIUM, Strain/Indicator: TA1535, Metabolic Activation: NONE, Method: PREINCUBATION
  mutagenic call: inactive; negative
Test System: AMES SALMONELLA TYPHIMURIUM, Strain/Indicator: TA1535, Metabolic Activation: RAT, LIVER, S-9, AROCLOR 1254 (10 OR 30%), Method: PREINCUBATION
  mutagenic call: inactive; negative

## N1=NC2[C@@H]3O[C@@H]3C1[C@H]1O[C@@H]21
[1]
  mutagenic call: inactive; negative
Test System: AMES SALMONELLA TYPHIMURIUM, Strain/Indicator: TA98, Metabolic Activation: RAT, LIVER, S-9, PHENOBARBITAL, Method: STANDARD PLATE
  mutagenic call: inactive; negative
[5]
  mutagenic call: inactive; negative
Test System: AMES SALMONELLA TYPHIMURIUM, Strain/Indicator: TA100, Metabolic Activation: RAT, LIVER, S-9, PHENOBARBITAL, Method: STANDARD PLATE
  mutagenic call: inactive; negative
Test System: AMES SALMONELLA TYPHIMURIUM, Strain/Indicator: TM677/8-AZAGUANINE, Metabolic Activation: NONE, Method: STANDARD PLATE
  mutagenic call: inactive; negative
